Among the data in US20250019385A1, “SPIROCYCLIC ANNULATED 2-AMINO-3-CYANO THIOPHENES AND DERIVATIVES FOR THE TREATMENT OF CANCER” (Boehringer Ingelheim International GmbH, priority 2023, published 2025) are IC50 values, retold here.

The pIC50 is the IC50 on a negative log10 scale, so that one unit is a factor of ten. Low values mean a large IC50, high ones a small IC50.

pIC50: −log10 of the molar value.

Sequence of KRAS (WT)::CRAF protein::protein interaction (P01116 other isoform, or with tags, fused parts or gaps): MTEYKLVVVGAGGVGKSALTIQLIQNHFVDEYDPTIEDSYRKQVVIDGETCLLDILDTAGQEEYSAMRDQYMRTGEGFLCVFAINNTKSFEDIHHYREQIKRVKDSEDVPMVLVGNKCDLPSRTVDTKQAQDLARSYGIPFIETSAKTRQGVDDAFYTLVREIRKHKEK
Sequence of KRAS (G12C)::SOS1 protein-protein interaction (P01116 other isoform, or with tags, fused parts or gaps G12C/C51S/C80L/C118S): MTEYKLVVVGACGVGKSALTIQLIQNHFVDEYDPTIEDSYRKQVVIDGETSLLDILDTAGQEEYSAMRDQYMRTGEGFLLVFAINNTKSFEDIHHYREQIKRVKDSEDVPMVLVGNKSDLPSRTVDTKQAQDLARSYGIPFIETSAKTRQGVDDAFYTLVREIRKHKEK

For one assay, the target named is KRAS (G12V)::CRAF protein::protein interaction (Homo sapiens (Human), UniProt P01116, C118S/G12V). The assay can be described thus: KRAS TR-FRET assay (KRAS G12V::CRAF, GTP).
Sequence of KRAS (G12V)::CRAF protein::protein interaction (P01116 other isoform, or with tags, fused parts or gaps G12V/C118S): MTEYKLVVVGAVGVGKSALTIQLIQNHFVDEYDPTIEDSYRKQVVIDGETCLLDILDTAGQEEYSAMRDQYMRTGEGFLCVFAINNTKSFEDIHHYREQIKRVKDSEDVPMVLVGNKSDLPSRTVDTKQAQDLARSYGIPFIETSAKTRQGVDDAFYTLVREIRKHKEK
Conditions: not given
It counts as binding. The procedure:
(§1) This assay measures the inhibitory effect of compounds on KRAS::CRAF protein::protein interactions in the presence of GTP using Time-resolved fluorescence energy transfer (TR-FRET).
(§2) The following wildtype or mutant alleles of KRAS and CRAF protein have been used at the given concentrations:
KRAS (G12V) 1-169, C118S, N-terminal 6His-tag, C-terminal avi-tag (Boehringer Ingelheim in house protein prep); final assay concentration 15 nM.
(§3) CRAF Ras binding domain, GST-tag, TEV cleavage site (Boehringer Ingelheim in house protein prep); final assay concentration 15 nM.
(§4) Test compounds dissolved in DMSO were dispensed onto assay plates (Proxiplate 384 PLUS, white, PerkinElmer; 6008289) using an Access Labcyte Workstation with the Labcyte Echo 55x. For the chosen highest assay concentration of 100 μM, 150 nl of compound solution was transferred from a 10 mM DMSO compound stock solution. A series of eleven fivefold dilutions per compound was transferred to the assay plate, compound dilutions were tested in duplicates. DMSO was added as backfill to a total volume of 150 nl.
(§5) The assay runs on a fully automated robotic system. To 150 nl of compound dilution 15 μl of a mix including the respective KRAS allele, CRAF (e.g. KRAS (G12D)::CRAF; final assay concentrations see above), GTP nucleotide (Sigma G8877; final assay concentration 10 μM), Lance Eu—W1024 labeled Streptavidin (PerkinElmer, Cat No AD0063; final assay concentration 1.5 nM) and Anti-GST surelight APC (PerkinElmer, Cat No AD0059G; final assay concentration 30 nM) in assay buffer (1×PBS, 0.1% BSA, 0.05% Tween 20) are added into columns 1-23 and 15 μL of the solution without the respective KRAS allele were added to row 24.
(§6) Plates are kept at room temperature in a darkened incubator. After 60 minutes incubation time the signal is measured in a PerkinElmer Envision HTS Multilabel Reader using the TR-FRET LANCE Ultra specs from PerkinElmer.
(§7) Each plate contains 16 wells of a negative control (diluted DMSO instead of test compound; w respective KRAS allele; column 23) and 16 wells of a positive control (diluted DMSO instead of test compound; w/o respective KRAS allele; column 24).
(§8) IC50 values were calculated and analyzed with Boehringer Ingelheim's MEGALAB 50 application using a 4 parametric logistic model.
(§9) Tables of example compounds disclosed herein contain IC50 values determined using the above assays (see Table 44).
Background: In TR-FRET formats the signal depends on donor and acceptor labels being close together.
Molecule `C[C@H](Oc1nc(-c2noc3c2CCC[C@@]32CCCc3sc(N)c(C#N)c32)nc2c1cnn2[C@@H]1CCOC1)[C@@H]1CCCN1C` [II-4] showed a pIC50 of 7.30.
For the molecule `COCCn1c(=O)n(C)c2c(O[C@@H](C)[C@@H]3CCCN3C)nc(-c3onc4c3CCC[C@@]43CCCc4sc(N)c(C#N)c43)nc21` [I-7], the negative logarithm of the IC50 (pIC50) was 6.35.
On the same count and under the same terms, in the case of `C[C@H](Oc1nc(-c2noc3c2CCC[C@@]32CCCc3sc(N)c(C#N)c32)nc2c1COC[C@@]21CCOC1)[C@@H]1CCCN1C` [II-9a] it was 6.85; in that of `C[C@H](Oc1nc(-c2onc3c2CCC[C@@]32CCCc3sc(N)c(C#N)c32)nc2c1n(C)c(=O)n2C12COC(C1)C2)[C@@H]1CCCN1C` [I-15], 6.82; in that of `C[C@H](Oc1nc(-c2onc3c2CCC[C@@]32CCCc3sc(N)c(C#N)c32)nc2c1n(C)c(=O)n2[C@H]1CCCOC1)[C@@H]1CCCN1C` [I-11], 6.50.
Molecule `C[C@H](Oc1nc(-c2noc3c2CCC[C@@]32CCCc3sc(N)c(C#N)c32)nc2c1CCO[C@]21CCOC1)[C@@H]1CCCN1C` [II-9b] had a pIC50 of 7.46.
The same measure, in the same setting: in the case of `CCn1c(=O)n([C@@H]2CCCOC2)c2nc(-c3onc4c3CCC[C@@]43CCCc4sc(N)c(C#N)c43)nc(O[C@@H](C)[C@@H]3CCCN3C)c21` [I-30] it was 6.99.
On the same count and under the same terms, in the case of `C[C@H](Oc1nc(-c2onc3c2CCC[C@@]32CCCc3sc(N)c(C#N)c32)nc2c1[nH]c(=O)n2[C@@H]1CCOC1)[C@@H]1CCCN1C` [I-8] it was 7.70.
Same read-out and setting: in the case of `C[C@H](Oc1nc(-c2onc3c2CCC[C@@]32CCCc3sc(N)c(C#N)c32)nc2c1n(C)c(=O)n2[C@@H]1CCOC1)[C@@H]1C[C@@H](F)CN1C` [I-22] it was 7.22.
The molecule `C[C@H](Oc1nc(-c2onc3c2CCC[C@@]32CCCc3sc(N)c(C#N)c32)nc2c1n(C)c(=O)n2[C@@H]1CCOC1)[C@@H]1[C@@H](F)CCN1C` [I-5] had a pIC50 of 6.58.
The same measure, in the same setting: in the case of `CCn1c(=O)n([C@@H]2CCOC2)c2nc(-c3onc4c3CCC[C@@]43CCCc4sc(N)c(C#N)c43)nc(O[C@@H](C)[C@@H]3CCCN3C)c21` [I-21] it was 7.43.

The target in the next assay is KRAS (G12C)::SOS1 protein-protein interaction (Homo sapiens (Human), UniProt P01116, C118S/C51S/C80L/G12C). The experiment in a line: KRAS::SOS1 AlphaScreen binding assay (KRAS G12C). The note with it: GDP. From the text:
This assay can be used to examine the potency with which compounds according to the invention binding to (mutated) KRAS inhibit the protein-protein interaction between SOS1 and (mutated) KRAS e.g. KRAS G12C, KRAS G12D. […] Low IC50 values in this assay setting are indicative of strong inhibition of protein-protein interaction between SOS1 and KRAS:
These assays measure the inhibitory effect of compounds on KRAS mutant protein-protein interactions using the Alpha Screen technology by Perkin Elmer.
The following (mutant) enzyme forms of KRAS and interacting proteins are used in these assays at the given concentrations:
KRAS (G12C) 1-169, N-terminal 6His-tag for purification, cleaved off, C-terminal avi-tag, biotinylated, mutations: C51S, C80L, C118S (in house); final assay concentration 7.5 nM and SOS1 564-1049, N-terminal 229 GST-tag, TEV cleavage site (Viva Biotech Ltd); final assay concentration 5 nM;
Test compounds dissolved in DMSO are dispensed onto assay plates (Proxiplate 384 PLUS, white, PerkinElmer; 6008289) using an Access Labcyte Workstation with the Labcyte Echo 55x. For the chosen highest assay concentration of 100 μM, 150 nL of compound solution are transferred from a 10 mM DMSO compound stock solution. A series of eleven fivefold dilutions per compound are transferred to the assay plate, compound dilutions are tested in duplicates. DMSO are added as backfill to a total volume of 150 nL.
The assays run on a fully automated robotic system in a darkened room below 100 Lux. To 150 nl of compound dilution 10 μl of a mix including KRAS mutant protein, SOS1 (final assay concentrations see above) and GDP nucleotide (Sigma G7127; final assay concentration 10 μM) in assay buffer (1×PBS, 0.1% BSA, 0.05% Tween 20) are added into columns 1-24.
After 30 minutes incubation time 5 μl of Alpha Screen bead mix in assay buffer are added into columns 1-23. Bead mix consists of AlphaLISA Glutathione Acceptor Beads (PerkinElmer, Cat No AL109) and AlphaScreen Streptavidin Donor Beads (PerkinElmer Cat No 6760002) in assay buffer at a final assay concentration of 10 μg/mL each.
Plates are kept at room temperature in a darkened incubator. After an additional 60 minutes incubation time the signal is measured in a PerkinElmer Envision HTS Multilabel Reader using the AlphaScreen specs from PerkinElmer.
Each plate contains up to 16 wells of a negative control depending on the dilution procedure (platewise or serial) (DMSO instead of test compound; with KRAS mutant::SOS1 GOP mix and bead mix; column 23) and 16 wells of a positive control (DMSO instead of test compound; with KRAS mutant::SOS1 GOP mix w/o bead mix; column 24).
As internal control known inhibitors of KRAS mutant::SOS1 interaction can be measured on each compound plate.
IC50 values are calculated and analyzed with Boehringer Ingelheim's MEGALAB C50 application using a 4 parametric logistic model.
Tables of example compounds disclosed herein contain IC50 values determined using the above assays (see Table 43).
For orientation: In Alpha technology, singlet oxygen from a donor bead excites a nearby acceptor bead.
For `C[C@H](Oc1nc(-c2noc3c2CCC[C@@]32CCCc3sc(N)c(C#N)c32)nc2c1cnn2[C@@H]1CCOC1)[C@@H]1CCCN1C` [II-4], the negative-log IC50 (pIC50) is 8.70.
Consider `COCCn1c(=O)n(C)c2c(O[C@@H](C)[C@@H]3CCCN3C)nc(-c3onc4c3CCC[C@@]43CCCc4sc(N)c(C#N)c43)nc21` [I-7], for which the negative-log IC50 (pIC50) is 8.52.
On the same count and under the same terms, the result for `C[C@H](Oc1nc(-c2noc3c2CCC[C@@]32CCCc3sc(N)c(C#N)c32)nc2c1COC[C@@]21CCOC1)[C@@H]1CCCN1C` [II-9a] reads 8.70; that for `C[C@H](Oc1nc(-c2onc3c2CCC[C@@]32CCCc3sc(N)c(C#N)c32)nc2c1n(C)c(=O)n2C12COC(C1)C2)[C@@H]1CCCN1C` [I-15], 8.70; that for `C[C@H](Oc1nc(-c2onc3c2CCC[C@@]32CCCc3sc(N)c(C#N)c32)nc2c1n(C)c(=O)n2[C@H]1CCCOC1)[C@@H]1CCCN1C` [I-11], 8.40.
Still for that read-out and setting: the result for `C[C@H](Oc1nc(-c2noc3c2CCC[C@@]32CCCc3sc(N)c(C#N)c32)nc2c1CCO[C@]21CCOC1)[C@@H]1CCCN1C` [II-9b] reads 9.00.
Regarding `CCn1c(=O)n([C@@H]2CCCOC2)c2nc(-c3onc4c3CCC[C@@]43CCCc4sc(N)c(C#N)c43)nc(O[C@@H](C)[C@@H]3CCCN3C)c21` [I-30], the pIC50 is 8.70.
Same read-out and setting: the result for `C[C@H](Oc1nc(-c2onc3c2CCC[C@@]32CCCc3sc(N)c(C#N)c32)nc2c1[nH]c(=O)n2[C@@H]1CCOC1)[C@@H]1CCCN1C` [I-8] reads 9.00; that for `C[C@H](Oc1nc(-c2onc3c2CCC[C@@]32CCCc3sc(N)c(C#N)c32)nc2c1n(C)c(=O)n2[C@@H]1CCOC1)[C@@H]1C[C@@H](F)CN1C` [I-22], 9.00; that for `C[C@H](Oc1nc(-c2onc3c2CCC[C@@]32CCCc3sc(N)c(C#N)c32)nc2c1n(C)c(=O)n2[C@@H]1CCOC1)[C@@H]1[C@@H](F)CCN1C` [I-5], 9.00.
On to `CCn1c(=O)n([C@@H]2CCOC2)c2nc(-c3onc4c3CCC[C@@]43CCCc4sc(N)c(C#N)c43)nc(O[C@@H](C)[C@@H]3CCCN3C)c21` [I-21], for which the pIC50 was 9.00.

The next assay concerns the target KRAS (WT)::CRAF protein::protein interaction (Homo sapiens (Human), UniProt P01116). The assay can be described thus: KRAS TR-FRET assay (KRAS WT::CRAF, GTP). The assay is classed as binding.
Conditions: not given
The procedure:
as §1, §2
KRAS (WT) 1-169, N-terminal 6His-tag, C-terminal avi-tag (Boehringer Ingelheim in house protein prep); final assay concentration 15 nM.
as §3, §4, §5, §6, §7, §8, §9
Molecule `C[C@H](Oc1nc(-c2noc3c2CCC[C@@]32CCCc3sc(N)c(C#N)c32)nc2c1cnn2[C@@H]1CCOC1)[C@@H]1CCCN1C` [II-4] gave a pIC50 of 7.09.
The molecule `COCCn1c(=O)n(C)c2c(O[C@@H](C)[C@@H]3CCCN3C)nc(-c3onc4c3CCC[C@@]43CCCc4sc(N)c(C#N)c43)nc21` [I-7] had a negative-log IC50 (pIC50) of 5.94.
As to `C[C@H](Oc1nc(-c2noc3c2CCC[C@@]32CCCc3sc(N)c(C#N)c32)nc2c1COC[C@@]21CCOC1)[C@@H]1CCCN1C` [II-9a], the pIC50 was 6.24.
Same read-out and setting: in the case of `C[C@H](Oc1nc(-c2onc3c2CCC[C@@]32CCCc3sc(N)c(C#N)c32)nc2c1n(C)c(=O)n2C12COC(C1)C2)[C@@H]1CCCN1C` [I-15] it was 6.75; in that of `C[C@H](Oc1nc(-c2onc3c2CCC[C@@]32CCCc3sc(N)c(C#N)c32)nc2c1n(C)c(=O)n2[C@H]1CCCOC1)[C@@H]1CCCN1C` [I-11], 6.47; in that of `C[C@H](Oc1nc(-c2noc3c2CCC[C@@]32CCCc3sc(N)c(C#N)c32)nc2c1CCO[C@]21CCOC1)[C@@H]1CCCN1C` [II-9b], 7.10.
The same measure, in the same setting: the result for `CCn1c(=O)n([C@@H]2CCCOC2)c2nc(-c3onc4c3CCC[C@@]43CCCc4sc(N)c(C#N)c43)nc(O[C@@H](C)[C@@H]3CCCN3C)c21` [I-30] reads 6.82; that for `C[C@H](Oc1nc(-c2onc3c2CCC[C@@]32CCCc3sc(N)c(C#N)c32)nc2c1[nH]c(=O)n2[C@@H]1CCOC1)[C@@H]1CCCN1C` [I-8], 7.35; that for `C[C@H](Oc1nc(-c2onc3c2CCC[C@@]32CCCc3sc(N)c(C#N)c32)nc2c1n(C)c(=O)n2[C@@H]1CCOC1)[C@@H]1C[C@@H](F)CN1C` [I-22], 6.88.
Still for that read-out and setting: in the case of `C[C@H](Oc1nc(-c2onc3c2CCC[C@@]32CCCc3sc(N)c(C#N)c32)nc2c1n(C)c(=O)n2[C@@H]1CCOC1)[C@@H]1[C@@H](F)CCN1C` [I-5] it was 6.18; in that of `CCn1c(=O)n([C@@H]2CCOC2)c2nc(-c3onc4c3CCC[C@@]43CCCc4sc(N)c(C#N)c43)nc(O[C@@H](C)[C@@H]3CCCN3C)c21` [I-21], 7.02.
